According to US11339419B2, “Scavenger protein(s) for improved preservation of analyte detection sensor(s) and method(s) of use thereof” (Siemens Healthcare Diagnostics Inc., priority 2017, dated 2022):
Several values for one entry are separate records, joined by “and”; a condition that tells them apart may be missing. Equal entries are not always repeated.

Tests used:
[1] = test system: sarcosine oxidase (BBI Solutions); assay: BBI Solutions Sarcosine Oxidase Enzyme Absorbance with BSA and MIT; format: biochemical; conditions: for Sarcosine Oxidase Enzyme Absorbance, MEAN of 7-11 / Sarcosine Oxidase Enzyme Absorbance, replicates 7-11 / Sarcosine Oxidase Enzyme Absorbance, MEAN of 1-5 / Sarcosine Oxidase Enzyme Absorbance, solutions 1-5: 37° C.
Description: Tables 1-4 depict aqueous solutions comprising varying concentrations of BSA (at concentrations of 0 mg/mL, 5 mg/mL, 25 mg/mL, and 50 mg/mL), varying concentrations of MIT (at concentrations of 50 parts per million and 100 parts per million) or Proclin™ 300 (at concentrations of 0.7% and 1.4%) biocides over a particular time period (measurements were taken at days 0, 4, and 14 after exposure of the enzyme(s) to the aqueous solutions) and the associated enzyme absorbance measurements for sarcosine oxidase (commercially offered for sale by BBI Solutions and Toyobo). Absorbance measurements of the sarcosine oxidase enzyme(s) were taken via spectrophotometer for each aqueous solution (represented as columns 1-5 in Tables 1-4—column 6 is a blank), the absorbance being directly proportional to the enzyme activity being measured-which for Tables 1-4 is sarcosine oxidase enzyme activity. Accordingly, the higher the absorbance measurement, the higher the enzyme activity of sarcosine oxidase. Columns 7-11 represent five replicate readings in which the aqueous solution only contains BSA (i.e., there is no biocide(s) present in the aqueous solution). In addition, the mean values, standard deviations, and coefficients of variation are also presented for the enzyme activity/absorbance of each aqueous solution. All measurements were taken at 37° C.
As depicted below in Table 1, sarcosine oxidase (commercially offered for sale by BBI Solutions) enzyme activity is measured against various concentrations of MIT (biocide) and BSA (scavenger protein) over a period of 14 days (with absorbance measurements taken at 0, 4, and 14 days) for five different aqueous solutions (represented as columns 1-5—column 6 is a blank).

[2] = test system: creatininase (Toyobo); assay: Toyobo Creatininase Enzyme Absorbance with BSA and MIT; format: biochemical; conditions: Day 0; 5 mg/mL BSA, no MIT (row of 50 ppm MIT)
Excerpt: Absorbance measurements of the creatininase enzyme(s) were taken via spectrophotometer for each aqueous solution (represented as columns 1-5 in Tables 5-8—column 6 is a blank), the absorbance being directly proportional to the enzyme activity being measured-which for Tables 5-8 is creatininase enzyme activity. Accordingly, the higher the absorbance measurement, the higher the enzyme activity of creatininase. Columns 7-11 represent five replicate readings in which the solution only contains BSA (i.e., there is no biocide(s) present in the solution). In addition, the mean values, standard deviations, and coefficients of variation are all presented for the enzyme activity/absorbance of each aqueous solution. All measurements were taken at 37° C.
As depicted in Table 6, creatininase (commercially offered for sale by Toyobo) enzyme activity is measured against various concentrations of MIT (biocide) and BSA (scavenger protein) over a period of 14 days (with absorbance measurement taken at 0, 4, and 14 days) for five different aqueous solutions (represented as columns 1-5—column 6 is a blank).

[3] = Day 0, 5 mg/mL BSA only, no MIT (50 ppm MIT row)
[4] = Day 0, 5 mg/mL BSA only, no MIT (100 ppm MIT row)
[5] = Day 0, 25 mg/mL BSA only, no MIT (50 ppm MIT row)
[6] = Day 0, 25 mg/mL BSA only, no MIT (100 ppm MIT row)
[7] = Day 0, 50 mg/mL BSA only, no MIT (50 ppm MIT row)
[8] = Day 0, 50 ppm MIT, 25 mg/mL BSA
[9] = Day 0, 50 ppm MIT, 50 mg/mL BSA
[10] = Day 0, 100 ppm MIT, 5 mg/mL BSA
[11] = Day 0, 100 ppm MIT, 25 mg/mL BSA
[12] = Day 0, 100 ppm MIT, 50 mg/mL BSA
[13] = Day 4, 50 ppm MIT, 25 mg/mL BSA
[14] = Day 4, 50 ppm MIT, 50 mg/mL BSA
[15] = Day 4, 100 ppm MIT, 5 mg/mL BSA
[16] = Day 4, 100 ppm MIT, 25 mg/mL BSA
[17] = Day 4, 100 ppm MIT, 50 mg/mL BSA
[18] = Day 14, 50 ppm MIT, 5 mg/mL BSA
[19] = Day 14, 50 ppm MIT, 25 mg/mL BSA
[20] = Day 14, 50 ppm MIT, 50 mg/mL BSA
[21] = Day 14, 100 ppm MIT, 5 mg/mL BSA
[22] = Day 14, 100 ppm MIT, 25 mg/mL BSA
[23] = Day 14, 100 ppm MIT, 50 mg/mL BSA

Sarcosine Oxidase Enzyme Absorbance, MEAN of 7-11 [1, 3]: 1.39
Sarcosine Oxidase Enzyme Absorbance, replicates 7-11 [1, 3]: 1.428
Sarcosine Oxidase Enzyme Absorbance, MEAN of 7-11 [1, 4]: 1.38
Sarcosine Oxidase Enzyme Absorbance, replicates 7-11 [1, 4]: 1.439 and 1.414 and 1.437 and 1.422
Sarcosine Oxidase Enzyme Absorbance, MEAN of 7-11 [1, 5]: 1.37
Sarcosine Oxidase Enzyme Absorbance, replicates 7-11 [1, 5]: 1.434
Sarcosine Oxidase Enzyme Absorbance, MEAN of 7-11 [1, 6]: 1.39
Sarcosine Oxidase Enzyme Absorbance, replicates 7-11 [1, 6]: 1.43 and 1.428 and 1.409 and 1.458
Sarcosine Oxidase Enzyme Absorbance, MEAN of 7-11 [1, 7]: 1.41
Sarcosine Oxidase Enzyme Absorbance, replicates 7-11 [1, 7]: 1.454
Sarcosine Oxidase Enzyme Absorbance, MEAN of 7-11 ([1]; Day 0, 50 mg/mL BSA only, no MIT (100 ppm MIT row)): 1.35
% Bias ([1]; Day 0, 50 ppm MIT vs no MIT, 5 mg/mL BSA): 2.3%
% Bias ([1]; Day 0, 50 ppm MIT vs no MIT, 25 mg/mL BSA): −0.5%
% Bias ([1]; Day 0, 50 ppm MIT vs no MIT, 50 mg/mL BSA): −0.1%
Sarcosine Oxidase Enzyme Absorbance, MEAN of 1-5 ([1]; Day 0, 50 ppm MIT, 5 mg/mL BSA): 1.42
Sarcosine Oxidase Enzyme Absorbance, MEAN of 1-5 [1, 8]: 1.37
Sarcosine Oxidase Enzyme Absorbance, MEAN of 1-5 [1, 9]: 1.41
% Bias ([1]; Day 0, 100 ppm MIT vs no MIT, 5 mg/mL BSA): −0.3%
% Bias ([1]; Day 0, 100 ppm MIT vs no MIT, 25 mg/mL BSA): 2.0%
% Bias ([1]; Day 0, 100 ppm MIT vs no MIT, 50 mg/mL BSA): 1.9%
Sarcosine Oxidase Enzyme Absorbance, MEAN of 1-5 [1, 10]: 1.38
Sarcosine Oxidase Enzyme Absorbance, MEAN of 1-5 [1, 11]: 1.41
Sarcosine Oxidase Enzyme Absorbance, MEAN of 1-5 [1, 12]: 1.38
Sarcosine Oxidase Enzyme Absorbance, MEAN of 7-11 ([1]; Day 4, 5 mg/mL BSA only, no MIT (50 ppm MIT row)): 1.41
Sarcosine Oxidase Enzyme Absorbance, MEAN of 7-11 ([1]; Day 4, 5 mg/mL BSA only, no MIT (100 ppm MIT row)): 1.36
Sarcosine Oxidase Enzyme Absorbance, MEAN of 7-11 ([1]; Day 4, 25 mg/mL BSA only, no MIT (50 ppm MIT row)): 1.37
Sarcosine Oxidase Enzyme Absorbance, MEAN of 7-11 ([1]; Day 4, 25 mg/mL BSA only, no MIT (100 ppm MIT row)): 1.36
Sarcosine Oxidase Enzyme Absorbance, MEAN of 7-11 ([1]; Day 4, 50 mg/mL BSA only, no MIT (50 ppm MIT row)): 1.47
Sarcosine Oxidase Enzyme Absorbance, MEAN of 7-11 ([1]; Day 4, 50 mg/mL BSA only, no MIT (100 ppm MIT row)): 1.36
% Bias ([1]; Day 4, 50 ppm MIT vs no MIT, 5 mg/mL BSA): 1.4%
% Bias ([1]; Day 4, 50 ppm MIT vs no MIT, 25 mg/mL BSA): 3.0%
% Bias ([1]; Day 4, 50 ppm MIT vs no MIT, 50 mg/mL BSA): −7.2%
Sarcosine Oxidase Enzyme Absorbance, MEAN of 1-5 ([1]; Day 4, 50 ppm MIT, 5 mg/mL BSA): 1.43
Sarcosine Oxidase Enzyme Absorbance, solutions 1-5 ([1]; Day 4, 50 ppm MIT, 5 mg/mL BSA): 1.47 and 1.446 and 1.456 and 1.467
Sarcosine Oxidase Enzyme Absorbance, MEAN of 1-5 [1, 13]: 1.41
Sarcosine Oxidase Enzyme Absorbance, MEAN of 1-5 [1, 14]: 1.37
% Bias ([1]; Day 4, 100 ppm MIT vs no MIT, 5 mg/mL BSA): 1.5%
% Bias ([1]; Day 4, 100 ppm MIT vs no MIT, 25 mg/mL BSA): 1.0%
% Bias ([1]; Day 4, 100 ppm MIT vs no MIT, 50 mg/mL BSA): 1.0%
Sarcosine Oxidase Enzyme Absorbance, MEAN of 1-5 [1, 15]: 1.38
Sarcosine Oxidase Enzyme Absorbance, solutions 1-5 [1, 15]: 1.404 and 1.416 and 1.435 and 1.42
Sarcosine Oxidase Enzyme Absorbance, MEAN of 1-5 [1, 16]: 1.37
Sarcosine Oxidase Enzyme Absorbance, MEAN of 1-5 [1, 17]: 1.38
Sarcosine Oxidase Enzyme Absorbance, MEAN of 7-11 ([1]; Day 14, 5 mg/mL BSA only, no MIT (50 ppm MIT row)): 1.39
Sarcosine Oxidase Enzyme Absorbance, MEAN of 7-11 ([1]; Day 14, 5 mg/mL BSA only, no MIT (100 ppm MIT row)): 1.42
Sarcosine Oxidase Enzyme Absorbance, MEAN of 7-11 ([1]; Day 14, 25 mg/mL BSA only, no MIT (50 ppm MIT row)): 1.38
Sarcosine Oxidase Enzyme Absorbance, MEAN of 7-11 ([1]; Day 14, 25 mg/mL BSA only, no MIT (100 ppm MIT row)): 1.40
Sarcosine Oxidase Enzyme Absorbance, MEAN of 7-11 ([1]; Day 14, 50 mg/mL BSA only, no MIT (50 ppm MIT row)): 1.37
Sarcosine Oxidase Enzyme Absorbance, MEAN of 7-11 ([1]; Day 14, 50 mg/mL BSA only, no MIT (100 ppm MIT row)): 1.44
% Bias ([1]; Day 14, 50 ppm MIT vs no MIT, 5 mg/mL BSA): −1.0%
% Bias ([1]; Day 14, 50 ppm MIT vs no MIT, 25 mg/mL BSA): −0.2%
% Bias ([1]; Day 14, 50 ppm MIT vs no MIT, 50 mg/mL BSA): 1.5%
Sarcosine Oxidase Enzyme Absorbance, MEAN of 1-5 [1, 18]: 1.37
Sarcosine Oxidase Enzyme Absorbance, MEAN of 1-5 [1, 19]: 1.38
Sarcosine Oxidase Enzyme Absorbance, solutions 1-5 [1, 19]: 1.413 and 1.41 and 1.422 and 1.427
Sarcosine Oxidase Enzyme Absorbance, MEAN of 1-5 [1, 20]: 1.39
% Bias ([1]; Day 14, 100 ppm MIT vs no MIT, 5 mg/mL BSA): 0.3%
% Bias ([1]; Day 14, 100 ppm MIT vs no MIT, 25 mg/mL BSA): −0.2%
% Bias ([1]; Day 14, 100 ppm MIT vs no MIT, 50 mg/mL BSA): −0.8%
Sarcosine Oxidase Enzyme Absorbance, MEAN of 1-5 [1, 21]: 1.43
Sarcosine Oxidase Enzyme Absorbance, MEAN of 1-5 [1, 22]: 1.40
Sarcosine Oxidase Enzyme Absorbance, MEAN of 1-5 [1, 23]: 1.43
absorbance of the sarcosine oxidase enzyme compared to samples containing 0 mg/mL of BSA ([1]; days 4 and 14, 5, 25 and 50 mg/mL BSA, with MIT): increased absorbance
sarcosine oxidase absorbance, solutions 7-11 ([1]; days 4 and 14, only BSA, no MIT): increased (or at least maintained)
Creatininase Enzyme Absorbance, columns 7-11 [2]: 0.791 and 0.78
Substance: bovine serum albumin [BSA]
Sarcosine Oxidase Enzyme Absorbance, solutions 1-5 ([1]; Day 0, 50 ppm MIT, 5 mg/mL BSA): 1.484 and 1.435 and 1.486 and 1.455 and 1.454
Sarcosine Oxidase Enzyme Absorbance, solutions 1-5 [1, 8]: 1.385 and 1.39 and 1.401 and 1.423 and 1.433
Sarcosine Oxidase Enzyme Absorbance, solutions 1-5 [1, 9]: 1.445 and 1.468 and 1.458 and 1.406 and 1.484
Sarcosine Oxidase Enzyme Absorbance, solutions 1-5 [1, 10]: 1.41 and 1.418 and 1.423 and 1.42 and 1.425
Sarcosine Oxidase Enzyme Absorbance, solutions 1-5 [1, 11]: 1.447 and 1.459 and 1.456 and 1.449 and 1.468
Sarcosine Oxidase Enzyme Absorbance, solutions 1-5 [1, 12]: 1.396 and 1.419 and 1.45 and 1.414 and 1.413
Sarcosine Oxidase Enzyme Absorbance, solutions 1-5 [1, 13]: 1.446 and 1.431 and 1.432 and 1.448 and 1.434
Sarcosine Oxidase Enzyme Absorbance, solutions 1-5 [1, 14]: 1.429 and 1.415 and 1.37 and 1.398 and 1.381
Sarcosine Oxidase Enzyme Absorbance, solutions 1-5 [1, 16]: 1.42 and 1.392 and 1.415 and 1.383 and 1.4
Sarcosine Oxidase Enzyme Absorbance, solutions 1-5 [1, 17]: 1.397 and 1.396 and 1.413 and 1.425 and 1.412
Sarcosine Oxidase Enzyme Absorbance, solutions 1-5 [1, 18]: 1.413 and 1.372 and 1.41 and 1.423 and 1.437
Sarcosine Oxidase Enzyme Absorbance, solutions 1-5 [1, 20]: 1.434 and 1.444 and 1.427 and 1.431 and 1.432
Sarcosine Oxidase Enzyme Absorbance, solutions 1-5 [1, 21]: 1.479 and 1.506 and 1.389 and 1.39 and 1.577
Sarcosine Oxidase Enzyme Absorbance, solutions 1-5 [1, 22]: 1.422 and 1.404 and 1.428 and 1.458 and 1.477
Sarcosine Oxidase Enzyme Absorbance, solutions 1-5 [1, 23]: 1.442 and 1.477 and 1.456 and 1.492 and 1.478
